Source: patent US8822698B2, “Aminoacid derivatives, their process of preparation and their therapeutical uses as inhibitors of oncogenic signals by the Met family” (Universite D'Aix-Marseille, priority 2009, dated 2014)
pIC50: −log10 of the molar value. Read-outs that look alike come from different tables or passages of the source.

What was measured:
[1] = system: MDCK cells; assay: Toxicity observed in the cell scattering screening; format: cell-based
Protocol: (§1) For scattering assays, MDCK cells were pre-incubated with compounds for 2 hours at 0.1-100 μM concentrations at 37° C. in a humidified atmosphere of 5% CO2, followed by 24 hr stimulation with 20 ng/ml HGF (R&D Systems), as previously described (Patane et al., Biochem Biophys Res Commun 375, 184-189, 2008). The cells were further incubated at 37° C. in an atmosphere of 5% CO2 for 24-48 hours, washed with phosphate-buffered saline (PBS; Gibco BRL), and fixed in PFA (Sigma). The quantification of scattering response was performed by counting the number of cells with scattered morphology in 30 independent colonies. The […] corresponds to the concentration of compounds leading to a 50% inhibition of Met-triggered cell scattering. Active compounds were assayed to impair scattering response also on human breast MCF10A cells following the same procedure. For survival assays, GTL-16, HepG2 and U-87 cells were cultured in serum-free media for 24 hours prior to compound addition for 48 hours. Viability was assessed with the Cell Titer Glo Luminescent Assay (Promega). For in vitro tumorigenesis, soft agar growth assays were preformed using GTL-16, HepG2, and U-87 cells, as previously described (Patane et al., Cancer Res 66, 4750-4757, 2006).
Compounds of examples 1 (XIII), 2 (XIV), 4 (XVI), 5 (XVII), and 6 (XVIII) in particular elicit inhibitory activity on Met-triggered cell scattering. […] The SU11274 (Met inhibitor; Sugen) was used as reference compound. […] These findings were further supported by analysing the inhibitory activity of compounds on breast cells. […] Altogether, these studies identify a new class of compounds of general formula (I), which are able to interfere with Met-triggered cell scattering.

[2] = system: GTL-16 cells; assay: Soft agar anchorage-independent growth (in vitro tumorigenesis), GTL-16; format: cell-based, human; conditions: Homo sapiens; soft agar growth, GTL-16
Protocol: (§2) MDCK cells were grown in Dulbecco's modified Eagle's medium (DMEM) (Gibco BRL) containing 4 mM L-glutamine and supplemented with 2% (v/v) foetal bovine serum (Gibco BRL), 100 U/mL penicillin, and 100 μg/mL streptomycin. Cells were plated at a density of 1000 cells per well in 24-well microplates and allowed to settle overnight at 37° C. in a humidified atmosphere of 5% CO2 prior to treatments. MCF10A human breast cells, MDA-MB231 human breast cancer cells, GTL-16 human gastric carcinoma cells, HepG2 human hepatocellular carcinoma cells, U-87 human glioblastoma-astrocytoma cells and LLC Lewis lung carcinoma cells were grown in RPMI medium (Gibco BRL) containing 4 mM L-glutamine and supplemented with 2% (v/v) foetal bovine serum (Gibco BRL), 100 U/mL penicillin, and 100 μg/mL streptomycin and kept at 37° C. in a humidified atmosphere of 5% CO2.
as §1, with “2006). […]” for “2006).”

[3] = system: Met-triggered cell scattering, MDCK cells; assay: HGF-induced MDCK cell scattering assay; format: cell-based; conditions: Canis lupus familiaris
Protocol: as §2, §1
Compounds were first submitted to a biological screening of cell motility, namely scattering response. MDCK epithelial cells acquire a “scattered phenotype” following stimulation by the Met ligand, HGF (Chan et al., J Biomol Screen. 13, 847-854, 2008; Corso et al., Trends Mol Med 11, 284-292, 2005; Patane et al., Biochem Biophys Res Commun 375, 184-189, 2008), allowing direct evaluation of compounds on Met functions. The Met inhibitor […] was used as control in all assays (Schiering et al., Proc Natl Acad Sci USA 100, 12654-12659, 2003).

[4] = system: HepG2 cells; assay: Soft agar anchorage-independent growth (in vitro tumorigenesis), HepG2; format: cell-based; conditions: Homo sapiens, read-out: HepG2 IC 50
Protocol: as §2
For scattering assays, MDCK cells were pre-incubated with compounds for 2 hours at 0.1-100 μM concentrations at 37° C. in a humidified atmosphere of 5% CO2, followed by 24 hr stimulation with 20 ng/ml HGF (R&D Systems), as previously described (Patane et al., Biochem Biophys Res Commun 375, 184-189, 2008). […] The quantification of scattering response was performed by counting the number of cells with scattered morphology in 30 independent colonies. […] Viability was assessed with the Cell Titer Glo Luminescent Assay (Promega). […]

[5] = system: Met phosphorylation, HepG2 cells; assay: Met phosphorylation upon HGF stimulation in HepG2 cells; format: cell-based, human
Protocol: After starvation, cells were pretreated with inhibitors, then stimulated with HGF, and total extracts were analyzed as described (Maina et al., Mol Cell 7, 1293-1306, 2001). Antibodies used were anti-tubulin (Sigma), anti-phospho Y1234-1235-Met, anti-Akt, anti-phospho-Akt, anti-phospho-Gab1, anti phosphor-ErbBs, anti-phospho-PDGFR, anti-PDGFRs, anti-ERKs (Cell Signaling), anti-ErbBs, anti-Met (Santa Cruz).
Activation of Met by HGF can be biochemically evaluated by following its phosphorylation levels and activation of downstream targets. We started to biochemically characterise the inhibitory properties of identified compounds by following Met phosphorylation and its downstream targets in HepG2 cells. […] These findings were further supported using other cell lines, such as MDA-MB231 human breast cancer cells (FIG. 2).

[6] = system: GTL-16 cells; conditions: Zou et al., 2007; cited from earlier work
[7] = MDCK cells, 20 ng/ml HGF, read-out: IC50 scattering inhibition

Row | SMILES | Toxicity ([1]; Table 1, scattering screening) [µM] | pIC50 [3, 7] | also measured
1 | O=C(Cc1cc(C(F)(F)F)cc(C(F)(F)F)c1)N[C@H](Cc1ccccc1)C(=O)Nc1ccc(-c2cn3c(n2)sc2ccccc23)cc1 [Example 5, (R)-2-(3,5-bis(trifluoromethyl)phenylacetamido)-3-phenyl-N-[4-(imidazo[2,1-b]benzothiazol-2-yl)phenyl]propanamide] | >50 | 6.69 | pIC50 [2]: 5.92
2 | Cc1cc(C)cc(CC(=O)N[C@H](Cc2ccccc2)C(=O)Nc2ccc(-c3cn4c(n3)sc3ccccc34)cc2)c1 [Example 2, (R)-2-(3,5-dimethylphenylacetamido)-3-phenyl-N-[4-(imidazo[2,1-b]benzothiazol-2-yl)phenyl]propanamide] | >100 | – | –
3 | O=C(Cc1cc(F)cc(F)c1)N[C@@H](Cc1ccccc1)C(=O)Nc1ccc(-c2cn3c(n2)sc2ccccc23)cc1 [Example 6] | >100 | – | –
4 | Cc1cc(C)cc(CC(=O)N[C@@H](Cc2ccccc2)C(=O)Nc2ccc(-c3cn4c(n3)sc3ccccc34)cc2)c1 [Example 1, (S)-2-(3,5-dimethylphenylacetamido)-3-phenyl-N-[4-(imidazo[2,1-b]benzothiazol-2-yl)phenyl]propanamide] | >100 | – | pIC50 [4]: 5.56; Met phosphorylation [5]: significantly reduced
5 | C[C@@H](NC(=O)Cc1cc(F)cc(F)c1)C(=O)Nc1ccc(-c2cn3c4c(sc3n2)CCCC4)cc1 [reference compound] | – | – | Toxicity ([1]; comparative compound, toxic at this concentration): at 100 μM; pIC50 ([3]; MDCK, comparative compound, same test, read-out: Scattering inhibition): 5.00
6 | Cc1[nH]c(/C=C2\C(=O)Nc3ccc(S(=O)(=O)N(C)c4cccc(Cl)c4)cc32)c(C)c1C(=O)N1CCN(C)CC1 [SU11274, (3Z)—N-(3-Chlorophenyl)-3-({3,5-dimethyl-4-[(4-methylpiperazin-1-yl)carbonyl]-1H-pyrrol-2-yl}methylene)-N-methyl-2-oxo-2,3-dihydro-1H-indole-5-sulfonamide, reference compound] | – | 6.60 | Soft-agar growth of GTL-16 cells [6]: impaired
